Literature values as cited in patent US12030852B2, “Method for producing fatty alcohol esters of hydroxycarboxylic acids” (IOI Oleo GmbH, priority 2019, dated 2024).

Details: even if several grams are taken; short plasma half-life

CC(O)CC(=O)O (stereo not shown) [3-hydroxybutyric acid]
duration of ketosis: about three to four
